A value given as a limit tells only on which side of the number the result lay.

Drawing on a melting point compilation (Tetko et al.), this text covers melting point for 112 molecules.

One may read the melting point as the temperature of the solid-liquid transition. As for `Cc1csc(C(N)=O)c1`, the melting point fell in the range of 115 to 117 °C. The value for `FC(F)(F)C(Cl)Cl` was -107 °C; that for `NC(=O)N1c2ccccc2CCc2ccccc21` was 205 °C; that for `CCN(CC)CCOc1ccc(C(O)(Cc2ccc(Cl)cc2)c2ccc(C)cc2)cc1` (configuration not stated) was 103 °C. Turning to `OCc1ccc(N2CCOCC2)cc1`, the melting point lay within 96 to 98 °C. The value for `CC1(C)CC(=O)c2cc(-c3ccccc3)n(-c3ccc(Cl)cc3)c2C1` was 185 to 187 °C; that for `CNCC(O)c1ccc(O)c(O)c1` (configuration not stated) was 218 °C. The value for `O=C(O)C1CCCC1` was 4 °C; that for `O=C(O)c1ncc[nH]1` was 198 °C; that for `COc1ccc(Br)c2c1C(=O)C2` was 74 °C.

As to `O=C(CCl)c1ccc(Cl)cc1Cl`, the melting point worked out at 54 °C. With `O=C(Oc1ccccc1)c1ccc(O)cc1`, the melting point was 176 to 178 °C. In the case of `CN(C)CCN1C(=O)c2ccccc2N(C)c2ccccc21`, the melting point is 116 °C. In turn, `Cn1ccnc1CO` registered a melting point of 107 to 111 °C. The value for `COc1ccc(OC)c(C(C)=O)c1O` was 49 to 51 °C; that for `CC12CCC(c3c(Br)cc(=O)oc31)C2(C)C` (configuration not stated) was 105 °C.

The molecule `Cc1nc(-c2ccccc2)sc1CO` gave a melting point of 99 to 102 °C. The value for `COc1cc(OC)c([N+](=O)[O-])c(OC)c1` was 152 °C; that for `O=Nc1c(-c2ccc3ccccc3c2)nc2ncccn12` was 249 °C. The value for `CON=C(C)c1cccc(Oc2nc(OC)cc(OC)n2)c1C(=O)OC` was 107 °C; that for `C=C(C)C=C(C)C` was -114 °C; that for `COC(CCNC1=CC(=O)c2ccccc2C1=O)OC` was 114 °C. For `Cc1c(C(=O)Cl)oc2ccccc12`, the melting point lay within 70 to 74 °C. The value for `COc1ccc(C(=O)Cn2cc([N+](=O)[O-])nc2C)cc1` was 250 to 252 °C; that for `COc1cc(C2Nn3c(nnc3-c3cccc([N+](=O)[O-])c3)S2)ccc1O` (configuration not stated) was 165 °C. As to `O=C(O)C=Cc1ccc(F)c(C(F)(F)F)c1`, the melting point was 143 °C.

For the molecule `CCOC(=O)C#Cc1cccc(C#CC(=O)OCC)c1`, the melting point worked out at 56 °C. Regarding `O=S(=O)(Cl)c1ccc(C(F)(F)F)cc1Cl`, the melting point worked out at 37 °C. `O=C(CCc1ccc(O)cc1)c1c(O)cc(O)cc1O` showed a melting point of 260 to 262 °C.

For `C/C(=N\c1cccc(C(=O)O)c1)c1c(O)c2ccccc2n(-c2ccccc2)c1=O`, the melting point is 242 to 243 °C. In the case of `Cc1cc[nH]n1`, the melting point turned out to be 36.5 °C. The value for `CCCCCCCCCCC(C)CC` (configuration not stated) was -38 °C; that for `CC(=O)OCCc1ccc(CCOC(C)=O)cc1` was 65 °C.

The molecule `O=C1c2cccc(O)c2C(=O)c2c(O)cc(CO)cc21` returned a melting point of 224 °C. The value for `O=Cc1cccn1-c1ccc(I)cc1` was 98 to 100 °C. The value for `CSC(SC)=C(C(C)=O)C(C)=O` was 61 °C. The value for `CCCOc1c(Cl)cc(C(=O)O)cc1Cl` was 129 to 132 °C; that for `O=C=Nc1ccc(OCc2ccccc2)cc1` was 61 to 63 °C.

As to `CCC(=O)C1CCCCC1C(C)(C)C(=O)O` (configuration not stated), the melting point came out at 115 °C. On to `CCCCSC(=Nc1cccnc1)SCc1ccc(C(C)(C)C)cc1`, for which the melting point was 32 °C. Turning to `C=CCn1c(=O)oc(=O)c2ccccc21`, the melting point fell in the range of 111 to 113 °C. The value for `O=C(O)C1CC=CCC1` (configuration not stated) was 17 °C; that for `CCn1cc(C(=O)O)c(=O)c2cc(F)c(N3CCNCC3)nc21` was 222 °C; that for `Cc1cc(C(=O)O)c(C)n1C1CC1` was 178 to 185 °C. The value for `Cc1ccc(C(=O)c2nn(-c3ccccc3)/c(=N\N=Cc3ccco3)s2)cc1` was 113 °C; that for `CC(=O)Nc1ccc(OC(=O)c2ccccc2OC(C)=O)cc1` was 175 °C; that for `Cc1nc2n(c(=O)c1CCN1CCC(c3noc4cc(F)ccc34)CC1)CCCC2` was 170 °C.

Molecule `Cc1cc(C)nc(NS(=O)(=O)c2ccc(N)cc2)n1` gave a melting point of 200 °C. The value for `C=CCn1c(=S)[nH]c2ccccc2c1=O` was 206 to 207 °C.

In the case of `COc1ccc(C=CC(=O)c2cccc(C(=O)C=Cc3ccc(OC)c(O)c3)c2)cc1O`, the melting point was above 200 °C. The value for `CC(C)(C)N(NC(=O)c1ccccc1)C(=O)c1ccccc1Cl` was 162 °C; that for `CSc1ncc(C=O)n1Cc1ccccc1` was 86 to 88 °C. `N#Cc1ccnc(F)c1` yielded a melting point of 32 °C. The molecule `COC(=O)c1ccncc1` displayed a melting point of 12.1 °C.

`CC(=O)Oc1ccc2ccc(OC(C)=O)cc2c1` yielded a melting point of 131 °C.

In turn, `CC(=O)O[C@H](c1ccccc1)C(O)(c1ccccc1)c1ccccc1` returned a melting point of 248 to 252 °C. For the molecule `Nc1ccccc1N1CCOCC1`, the melting point is 98 to 99 °C. For the molecule `Cc1cc(Cl)ccc1N`, the melting point came to 30.3 °C.

`COc1ccc(C=C(C#N)C(N)=O)cc1` registered a melting point of 321 °C. The value for `O=C(Nc1ccc([N+](=O)[O-])cc1Br)C1(F)C(F)(F)C(F)(F)C(F)(F)C(F)(F)C1(F)F` was 102 °C.

`Cc1ccc(C(C)(C)C(=O)ON)cc1` displayed a melting point of 119 °C. The value for `BrCC(CBr)CBr` was -32 °C; that for `S=C=Nc1ccc2nsnc2c1` was 96 to 97 °C; that for `CC(=O)c1ccc(O)c(C(F)(F)F)c1` was 176 °C.

Molecule `OCC(CO)(CO)COCC(CO)(CO)COCC(CO)(CO)CO` had a melting point of 249 °C.

In turn, `Nc1cc(Cl)c([N+](=O)[O-])cc1Cl` gave a melting point of 155 °C. The value for `CCCNC(=O)COC(=O)c1ccccc1` was 89.5 °C. The value for `N#C/C(=N\Nc1ccc(Cl)cc1)c1nc2ccccc2c(=O)[nH]1` was 253 °C; that for `Cc1c([N+](=O)[O-])cc(C(=O)O)cc1[N+](=O)[O-]` was 155 to 159 °C. In the case of `CCCCCCCCCCCN`, the melting point was 16.5 °C. The value for `CC(C)(c1cc(Br)c(O)c(Br)c1)c1cc(Br)c(O)c(Br)c1` was 181 °C; that for `Cc1nc(-c2cccc(-n3cccc3)c2)sc1C(=O)NN` was 185 to 186 °C; that for `NC(=S)NNC(N)=S` was 200 to 203 °C. With `Oc1ccc2ccc(O)cc2c1`, the melting point stood at 193 °C.

For `O=C(c1ccc2ccccc2c1)c1noc(-c2ccc(Br)cc2)c1S(=O)(=O)c1ccccc1`, the melting point worked out at 173 °C.

Regarding `COCC(C)OC(C)=O` (configuration not stated), the melting point was -87 °C. `Cn1cc(CCC(=O)O)c(=O)n(C)c1=O`: the melting point is 225 °C.

As for `CC(C)(C)OC(=O)NC(CC(N)=O)C(=O)O` (configuration not stated), the melting point lay in the range of 179 to 182 °C. In the case of `Nc1cccc(Br)n1`, the melting point was determined as 90 °C. The value for `COc1ccc2c(c1)=NC1=C(C)NCCC=21` was 230 °C; that for `ONc1ccccc1` was 83.5 °C.

With `O=C(O)c1cn2nc(Cl)ccc2n1`, the melting point fell in the range of 248 to 249 °C. The value for `C[C@]12CCC(=O)C=C1CC[C@@H]1[C@@H]2CC[C@]2(C)C(=O)CC[C@@]12O` was 256 to 260 °C. The value for `O=[N+]([O-])c1c(F)ccc(Cl)c1F` was 47 °C. The value for `O=C(CCl)Nc1ccccc1C(F)(F)F` was 92 to 94 °C; that for `O=C(c1ccc(Br)cc1)c1noc(-c2ccc(Cl)cc2)c1S(=O)(=O)c1ccccc1` was 145 °C; that for `CC1(C)CCCCC1=O` was -20.5 °C. Regarding `c1ccc2cc3c(cc2c1)OCCOCCOCCOCCO3`, the melting point fell in the range of 117 to 118 °C.

With `COC(=O)c1c(SC)nc(-c2ccccc2)[nH]c1=O`, the melting point lay within 283 to 285 °C. For `COc1ccc(C(=O)O)cc1[N+](=O)[O-]`, the melting point fell in the range of 191 to 194 °C. Turning to `C1CC2CCCC(C1)C2`, the melting point is 146 °C. Molecule `COc1cccc(C=O)c1OC` gave a melting point of 52 °C. The value for `COc1cccc(OC)c1C(=O)O` was 187 to 190 °C; that for `N#C/C(=N/Nc1ccccc1)c1nc(-c2ccccc2)cs1` was 175 °C. The value for `OCC1OC(n2cnc3c(S)ncnc32)C(O)C1O` (configuration not stated) was 218 to 221 °C; that for `Cc1nc(-c2cccc(S(=O)(=O)Cl)c2)no1` was 67 to 69 °C. `COC(=O)[C@@H](N)Cc1ccc(O)cc1` returned a melting point of 137 °C. Regarding `ClC(Cl)=C(c1ccc(Cl)cc1)c1ccc(Cl)cc1`, the melting point is 89 °C. The value for `CC1(C)C(=O)N(Br)C(=O)N1Br` was 187 to 191 °C; that for `CCOC(=O)c1sc2nc(C)cc(C)c2c1N` was 157 to 158 °C. The value for `CCOC(=O)c1sc(C2CCN(C(=O)OC(C)(C)C)CC2)nc1C` was 47 °C; that for `COC(=O)c1cc(C(=O)OC)cc([N+](=O)[O-])c1` was 122 °C; that for `CC(=NOCc1cccc(C(=O)O)c1)c1ccc(Cl)c(Cl)c1` was 175 to 178 °C. The value for `C[Si](C)(C)C=C[Si](C)(C)C` was -18.5 °C; that for `CC(=O)Nc1cccc(N=Nc2cccc(NC(C)=O)c2)c1` was 272 °C. As to `Sc1nnc(SCCSc2nnc(S)s2)s1`, the melting point fell in the range of 202 to 204 °C. The value for `O=C(O)c1cc2cc(Cl)cc(Br)c2oc1=O` was 206 to 208 °C; that for `Fc1ccc(F)c(F)c1F` was -42 °C. The value for `OCC(O)C(O)C(OC1OC(CO)C(O)C(O)C1O)C(O)CO` (configuration not stated) was 151 °C.

The molecule `Brc1ccc(Cn2ccnc2)cc1` had a melting point of 75 to 80 °C.

In turn, `NCCOc1ccccc1Cl` displayed a melting point of 40 °C. The value for `Cc1ncc(CO)c(C(=O)O)c1O` was 248 °C.
